Results from ChEMBL document CHEMBL1201862, “PubChem BioAssay data set” (2004).
The source made the active and inactive calls.

Legend:
[1] = molecular target: T1, Aminopeptidase N (Plasmodium falciparum FcB1/Columbia, UniProt O96935); assay: malaria alanyl aminopeptidase activity blockers – biochemical, fluorogenic H-Leu-NHMec substrate, 1536-well (AID 1445); design: species or system Plasmodium falciparum 3D7, 3D7
T1 sequence (O96935 whole entry): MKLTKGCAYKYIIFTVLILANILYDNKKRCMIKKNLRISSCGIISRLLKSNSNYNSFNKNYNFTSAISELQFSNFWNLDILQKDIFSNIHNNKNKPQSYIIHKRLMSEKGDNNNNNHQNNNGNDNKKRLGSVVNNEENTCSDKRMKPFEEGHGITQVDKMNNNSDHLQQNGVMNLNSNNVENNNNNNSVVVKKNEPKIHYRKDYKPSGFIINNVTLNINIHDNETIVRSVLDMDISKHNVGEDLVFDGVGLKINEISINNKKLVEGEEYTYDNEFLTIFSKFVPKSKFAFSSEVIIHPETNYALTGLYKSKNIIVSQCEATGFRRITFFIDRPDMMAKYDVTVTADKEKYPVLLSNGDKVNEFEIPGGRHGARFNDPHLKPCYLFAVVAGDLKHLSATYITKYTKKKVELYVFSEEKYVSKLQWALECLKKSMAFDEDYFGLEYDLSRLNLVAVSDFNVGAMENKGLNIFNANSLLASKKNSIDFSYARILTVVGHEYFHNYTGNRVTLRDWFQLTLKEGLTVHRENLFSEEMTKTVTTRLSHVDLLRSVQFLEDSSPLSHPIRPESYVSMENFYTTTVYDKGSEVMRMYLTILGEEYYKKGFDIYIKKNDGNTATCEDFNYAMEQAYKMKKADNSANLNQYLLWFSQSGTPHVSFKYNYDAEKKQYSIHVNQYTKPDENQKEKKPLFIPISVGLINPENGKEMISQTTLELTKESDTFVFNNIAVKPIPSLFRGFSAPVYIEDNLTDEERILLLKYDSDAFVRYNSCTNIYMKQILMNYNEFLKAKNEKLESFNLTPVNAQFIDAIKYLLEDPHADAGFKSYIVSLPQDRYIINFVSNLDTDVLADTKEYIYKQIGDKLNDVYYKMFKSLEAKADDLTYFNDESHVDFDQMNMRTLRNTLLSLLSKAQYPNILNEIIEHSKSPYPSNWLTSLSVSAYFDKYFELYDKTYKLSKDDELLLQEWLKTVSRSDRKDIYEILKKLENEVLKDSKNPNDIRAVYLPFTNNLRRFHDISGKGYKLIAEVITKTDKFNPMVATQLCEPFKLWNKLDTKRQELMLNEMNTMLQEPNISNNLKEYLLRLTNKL

[2] = molecular target: T2, Voltage-gated inwardly rectifying potassium channel KCNH2 (Homo sapiens, UniProt Q12809); assay: dose-dependent reversal of dofetilide hERG block – manual patch clamp, HEK293 cells, dose response (AID 2638); type: ADME
[3] = molecular target: T2, Voltage-gated inwardly rectifying potassium channel KCNH2; assay: concentration-dependent hERG rescue from blockers – cell-based, thallium flux, dose response (AID 2121); type: ADME
[4] = molecular target: T3, Replicative DNA helicase DnaB (Mycobacterium tuberculosis, UniProt P9WMR3); assay: DnaB intein splicing inhibitors, dose response, biochemical, cell-free fluorescence (AID 449749); type: functional
T3 sequence (P9WMR3 whole entry): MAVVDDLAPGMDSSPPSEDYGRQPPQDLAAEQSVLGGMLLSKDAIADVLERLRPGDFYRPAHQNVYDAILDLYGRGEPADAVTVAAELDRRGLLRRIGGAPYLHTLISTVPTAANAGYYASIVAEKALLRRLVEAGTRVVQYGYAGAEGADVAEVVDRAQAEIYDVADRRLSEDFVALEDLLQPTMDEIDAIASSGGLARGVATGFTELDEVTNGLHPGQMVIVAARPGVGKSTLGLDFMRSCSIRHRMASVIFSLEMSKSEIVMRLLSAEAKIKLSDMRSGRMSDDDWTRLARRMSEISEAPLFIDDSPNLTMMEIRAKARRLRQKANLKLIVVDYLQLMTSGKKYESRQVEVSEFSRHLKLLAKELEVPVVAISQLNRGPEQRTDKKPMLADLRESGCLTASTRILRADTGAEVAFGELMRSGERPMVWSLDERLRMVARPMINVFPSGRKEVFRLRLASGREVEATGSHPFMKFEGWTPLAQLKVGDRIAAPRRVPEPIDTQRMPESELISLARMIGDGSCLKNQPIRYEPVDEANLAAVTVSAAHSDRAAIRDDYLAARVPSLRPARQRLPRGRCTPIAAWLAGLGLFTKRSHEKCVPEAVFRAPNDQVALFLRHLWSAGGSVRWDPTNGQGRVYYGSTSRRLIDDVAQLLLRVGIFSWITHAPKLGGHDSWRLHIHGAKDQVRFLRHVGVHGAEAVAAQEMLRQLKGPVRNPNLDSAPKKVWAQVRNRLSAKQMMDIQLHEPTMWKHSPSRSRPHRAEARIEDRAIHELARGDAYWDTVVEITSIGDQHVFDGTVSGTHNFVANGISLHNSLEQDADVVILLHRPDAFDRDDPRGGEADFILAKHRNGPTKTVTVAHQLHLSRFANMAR

[5] = NIH-3T3 fibroblast cytotoxicity, dose response, cytotoxicity control, cell-based, fluorescence, Alamar Blue, secondary assay (AID 2327); type: functional;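 further: NIH-3T3 mouse fibroblasts cultured with fluconazole at 8 µg/mL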
[6] = A549 cell cytotoxicity, dose response, cytotoxicity control, plate reader, cherry-pick, antagonist series (AID 743412); type: functional, cell-based
[7] = blockers of bursicon-stimulated LGR2 cAMP reporter – cell-based, HEK293, CRE-luciferase reporter, cherry pick, set 2, dose response (AID 743343); type: functional;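 further: transfected cells were stimulated with diluted bursicon conditioned medium after compound addition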
[8] = viability loss in HEK293 cells – cell-based, plate reader, cherry-picked samples, cytotoxicity control, dose response (AID 743446); type: functional
[9] = reduction of Shn3 3'UTR-driven luciferase in osteoblasts – cell-based, Clone20 osteoblasts, firefly luciferase, cherry-picked, dose response (AID 624132); type: functional;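 further: firefly luciferase luminescence from reporter carrying the Shn3 3'UTR in osteoblasts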
[10] = fluconazole-exposed Candida albicans growth modulators – fluorescence, retest, confirmation (AID 2467); type: functional, cell-based
[11] = blockade of melanocortin 4 receptor signaling – cell-based, plate reader, cherry pick, counter-screen for LGR2 antagonist project, dose response (AID 743444); type: functional;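 further: transfected HEK 293 cells stimulated with alpha-MSH peptide; potency of inhibitors of the alpha-MSH evoked signal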
[12] = molecular target: Bifunctional protein GlmU (Mycobacterium tuberculosis, UniProt P9WMN3); assay: Inhibitors of Mycobacterial Glucosamine-1-phosphate acetyl transferase (GlmU). Secondary screen.; design: species or system Mycobacterium tuberculosis H37Rv
[13] = molecular target: T4, Protein RecA (Mycobacterium tuberculosis, UniProt P9WHJ3); assay: Fluorescence Cell-Free Homogeneous Dose Retest to Identify Inhibitors of RecA-Intein Splicing Activity. [Related pubchem assays (depositor defined):AID2097, AID2223, AID489010, AID492950]; type: functional
T4 sequence (P9WHJ3 whole entry): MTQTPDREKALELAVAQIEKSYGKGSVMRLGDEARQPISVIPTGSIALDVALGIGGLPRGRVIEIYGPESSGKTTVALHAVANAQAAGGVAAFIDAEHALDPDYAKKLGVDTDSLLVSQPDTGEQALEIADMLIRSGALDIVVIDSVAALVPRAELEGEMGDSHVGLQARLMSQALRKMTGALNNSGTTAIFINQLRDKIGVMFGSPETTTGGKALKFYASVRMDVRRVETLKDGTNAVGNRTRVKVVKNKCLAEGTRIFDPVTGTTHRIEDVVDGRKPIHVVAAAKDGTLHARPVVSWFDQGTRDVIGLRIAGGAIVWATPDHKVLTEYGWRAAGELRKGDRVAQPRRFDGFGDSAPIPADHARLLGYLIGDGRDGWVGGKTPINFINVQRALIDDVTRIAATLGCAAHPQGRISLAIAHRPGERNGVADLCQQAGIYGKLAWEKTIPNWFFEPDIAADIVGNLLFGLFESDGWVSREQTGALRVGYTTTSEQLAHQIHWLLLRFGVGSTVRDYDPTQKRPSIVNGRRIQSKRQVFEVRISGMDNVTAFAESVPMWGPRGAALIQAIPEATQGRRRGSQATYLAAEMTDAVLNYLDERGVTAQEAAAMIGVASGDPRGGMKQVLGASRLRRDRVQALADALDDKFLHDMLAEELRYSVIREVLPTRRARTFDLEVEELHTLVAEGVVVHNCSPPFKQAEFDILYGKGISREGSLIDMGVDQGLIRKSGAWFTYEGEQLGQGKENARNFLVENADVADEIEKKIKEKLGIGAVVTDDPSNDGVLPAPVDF

[14] = NIH3T3 cell viability loss – ATP luminescence, mouse fibroblasts, counter-screen, dose response (AID 2010); type: functional, cell-based;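 further: cells exposed to compound for about 90 hours before reading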
[15] = Trypanosoma cruzi growth suppression in host cells – NIH3T3 host cells, beta-gal luminescence, confirmation (AID 2044); type: functional, cell-based;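 further: intracellular parasites grown in NIH/3T3 mouse fibroblasts as host cells; luminescent beta-galactosidase reporter signal from transgenic T. cruzi replicating inside host cells; inhibitors lower the luminescence signal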
[16] = toxicity toward HepG2 liver cells – cell-based, plate reader, cherry-pick, antagonist series, cytotoxicity control, dose response (AID 743416); type: functional
[17] = molecular target: G-protein coupled receptor 55 (Homo sapiens, UniProt Q9Y2T6); assay: inhibition of LPI-stimulated GPR55 beta-arrestin translocation – imaging, U2OS, beta-arrestin-GFP, LPI agonist, primary screen (AID 2013); type: functional;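 further: antagonist potency measured as reduced agonist-driven arrestin aggregation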
[18] = non-specific 3'UTR reporter inhibition in Clone20-Shn3RL – cell-based, Renilla luciferase, cherry-picked, counter-screen for Shn3 inhibitor project, dose response (AID 624133); type: functional
[19] = Luminescent dose response cell-based high throughput screening assay for inhibitors of the Janus kinase 2 mutant JAK2V617F. [Related pubchem assays: 1446 (Primary screen.), 1521 (Confirmation assay.), 1486 (Counter screen.)]; type: functional
[20] = tested on: CHO; assay: CHO cell viability loss, potency – luminescence, cytotoxicity control for TLR9-MyD88 binding inhibitor project, dose response (AID 588339); type: functional, cell-based, hamster; conditions: Cricetulus griseus;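 further: CHO cells stably coexpressing TLR9 and MyD88 fusions from primary screen; compound exposure lasted 48 hours before viability readout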
[21] = molecular target: Beta Lactamase (Pseudomonas aeruginosa, UniProt Q932Y6); assay: BLA reporter interference, concentration series – BLA reporter cells, FRET fluorescence, artefact control for TLR9-MyD88 binding inhibitor project, dose response (AID 588341); type: cell-based;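 further: cell based assay in CHO-K1 cells stably expressing beta-lactamase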
Chain of Beta Lactamase (Q932Y6 whole entry): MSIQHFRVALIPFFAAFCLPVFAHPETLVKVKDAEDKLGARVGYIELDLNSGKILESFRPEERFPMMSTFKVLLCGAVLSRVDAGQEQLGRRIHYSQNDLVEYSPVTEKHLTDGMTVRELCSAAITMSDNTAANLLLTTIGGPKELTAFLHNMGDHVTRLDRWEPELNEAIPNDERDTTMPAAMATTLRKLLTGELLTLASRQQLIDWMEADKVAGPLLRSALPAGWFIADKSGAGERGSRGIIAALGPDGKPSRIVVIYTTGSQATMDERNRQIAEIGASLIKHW

T2 sequence (Q12809 whole entry): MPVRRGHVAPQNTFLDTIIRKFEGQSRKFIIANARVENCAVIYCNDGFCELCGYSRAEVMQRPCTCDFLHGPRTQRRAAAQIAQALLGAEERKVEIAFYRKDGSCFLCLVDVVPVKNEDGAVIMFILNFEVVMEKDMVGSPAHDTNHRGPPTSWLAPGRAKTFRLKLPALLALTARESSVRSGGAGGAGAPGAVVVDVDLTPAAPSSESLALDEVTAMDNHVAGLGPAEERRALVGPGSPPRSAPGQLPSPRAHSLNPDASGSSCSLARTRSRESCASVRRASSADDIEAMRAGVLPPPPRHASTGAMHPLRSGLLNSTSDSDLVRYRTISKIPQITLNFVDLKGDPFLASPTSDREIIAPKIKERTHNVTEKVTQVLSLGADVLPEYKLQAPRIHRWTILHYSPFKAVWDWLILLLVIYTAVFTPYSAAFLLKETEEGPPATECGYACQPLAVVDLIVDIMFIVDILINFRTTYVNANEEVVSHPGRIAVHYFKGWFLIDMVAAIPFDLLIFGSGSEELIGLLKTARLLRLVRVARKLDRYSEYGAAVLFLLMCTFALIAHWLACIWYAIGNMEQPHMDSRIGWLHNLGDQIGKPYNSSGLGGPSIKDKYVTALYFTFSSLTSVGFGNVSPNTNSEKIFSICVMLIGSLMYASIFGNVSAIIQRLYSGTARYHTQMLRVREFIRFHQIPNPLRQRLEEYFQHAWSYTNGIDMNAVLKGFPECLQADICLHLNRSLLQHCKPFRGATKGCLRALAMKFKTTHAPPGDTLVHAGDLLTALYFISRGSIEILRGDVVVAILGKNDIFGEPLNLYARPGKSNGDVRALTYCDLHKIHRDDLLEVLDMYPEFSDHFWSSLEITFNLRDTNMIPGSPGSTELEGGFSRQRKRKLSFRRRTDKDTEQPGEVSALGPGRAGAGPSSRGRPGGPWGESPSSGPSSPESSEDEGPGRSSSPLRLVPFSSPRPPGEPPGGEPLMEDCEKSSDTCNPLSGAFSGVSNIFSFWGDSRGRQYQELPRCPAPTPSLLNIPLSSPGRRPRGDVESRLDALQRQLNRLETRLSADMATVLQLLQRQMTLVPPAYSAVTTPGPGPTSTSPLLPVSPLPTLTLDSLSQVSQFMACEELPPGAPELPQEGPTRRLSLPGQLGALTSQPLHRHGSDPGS
Chain of G-protein coupled receptor 55 (Q9Y2T6 whole entry): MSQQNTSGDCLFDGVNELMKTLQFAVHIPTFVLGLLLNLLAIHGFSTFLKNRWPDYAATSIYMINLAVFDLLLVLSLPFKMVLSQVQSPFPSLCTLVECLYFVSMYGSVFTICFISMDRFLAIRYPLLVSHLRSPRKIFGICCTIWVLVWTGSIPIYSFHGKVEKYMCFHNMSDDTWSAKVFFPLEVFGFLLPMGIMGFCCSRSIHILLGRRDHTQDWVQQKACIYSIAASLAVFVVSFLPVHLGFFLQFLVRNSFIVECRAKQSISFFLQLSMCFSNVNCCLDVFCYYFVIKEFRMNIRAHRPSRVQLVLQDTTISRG
Chain of Bifunctional protein GlmU (P9WMN3 whole entry): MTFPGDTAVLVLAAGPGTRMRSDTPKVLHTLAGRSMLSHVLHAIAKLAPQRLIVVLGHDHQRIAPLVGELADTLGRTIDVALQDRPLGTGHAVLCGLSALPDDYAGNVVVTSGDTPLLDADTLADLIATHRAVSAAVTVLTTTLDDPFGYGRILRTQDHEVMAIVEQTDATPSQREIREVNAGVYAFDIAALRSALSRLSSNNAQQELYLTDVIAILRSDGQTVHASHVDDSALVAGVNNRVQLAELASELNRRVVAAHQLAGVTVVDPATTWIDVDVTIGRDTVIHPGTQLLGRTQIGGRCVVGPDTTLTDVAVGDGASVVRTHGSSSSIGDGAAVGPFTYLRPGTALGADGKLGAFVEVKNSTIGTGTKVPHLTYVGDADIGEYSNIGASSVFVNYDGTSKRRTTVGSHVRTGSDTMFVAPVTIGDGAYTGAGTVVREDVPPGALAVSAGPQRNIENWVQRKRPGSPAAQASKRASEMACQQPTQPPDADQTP

CCC1CCCCN1C(=S)NC(=O)c1cccs1 (stereo unspecified)
active: IC50 [1] 30 µM | EC50 [2] 5.2 µM | EC50 [3] 0.29 µM

CNC(=O)c1nnsc1[S+]([O-])c1ccc(Cl)cc1 (stereo unspecified)
active: AC50 [4] 41.2 µM | AC50 [6] 11.5 µM | AC50 [7] 2.58 µM | AC50 [8] 12 µM | AC50 [9] 2.02 µM | EC50 [10] 2.07 µM | AC50 [11] 2.49 µM | IC50 [12] 108 µM | EC50 [13] 21 µM | EC50 [14] 1.9 µM | EC50 [15] 0.977 µM | AC50 [16] 9.72 µM | IC50 [17] 2.73 µM | AC50 [18] 6.49 µM | IC50 [19] 0.707 µM | IC50 [20] 2.23 µM
inactive: IC50 [21] 19.6 µM
inconclusive: EC50 [5] 5.05 µM
